Laboratory results: US20240148757A1, “USE OF DIHYDROOROTATE DEHYDROGENASE (DHODH) INHIBITORS TO TARGET FERROPTOSIS IN CANCER THERAPY” (BOARD OF REGENTS, THE UNIVERSITY OF TEXAS SYSTEM, priority 2021, published 2024)

How the values were obtained:
GPX4^high HT-1080 cells = assay: Cell viability / cell death (ferroptosis) in HT-1080 cells; format: cell-based, human; conditions: wild-type (WT) cells, BQR 500 μM, 4 hours
Description: Briefly, cells were seeded onto 96-well plates at a density of 2×10^4 per well. The next day, cells were treated with GPX4 or DHODH inhibitors for 4 hours. Subsequently, cells exposed to 10 μl CCK-8 reagent (100 μl medium per well) for 1 hour at 37° C., 5% CO2 in an incubator. The absorbance at a wavelength of 450 nm was determined using a FLUOstar Omega microplate reader (BMG Labtech).
For propidium iodide-staining, cells were seeded at a density of 50% confluence into 12-well plates. The next day, cells were treated with different reagents. To measure cell death, the cells were collected (including floating dead cells), stained with 5 μg/ml propidium iodide and the percentage of the propidium iodide-positive dead cell population was analyzed using the flow cytometer BD Accuri C6 (BD Biosciences) and an FL2 detector. A minimum of 10,000 single cells were analyzed per well and all experiments were carried out at least in triplicate.

HT-1080 xenograft tumors = assay: HT-1080 cell line-derived xenograft model; format: in vivo, athymic nude mice
Description: (§1) Fresh tumor tissues were fixed in 10% neutral buffered formalin overnight, washed once with PBS, and stored in 70% ethanol at 4° C. The tissues were dehydrated and embedded in paraffin by the Research Histology Core Laboratory (MD Anderson Cancer Center) according to standard protocols. Embedded tissues were sectioned at a thickness of 5 μm for H&E or immunohistochemistry (IHC) analysis. IHC analysis was performed as previously described (Gan, B., et al., Cancer Cell 18, 472-484 (2010); Gan, B., et al., J Cell Biol 175, 121-133 (2006)). Briefly, the primary antibodies, including ki-67 (1:500, 9027s, Cell Signaling Technology), cleaved-caspase 3 (1:500, 9661s, Cell Signaling Technology), or 4-HNE (1:400, ab46545, Abcam) were incubated overnight at 4° C. Staining was performed using the Vectastain elite ABC kit and DAB peroxidase substrate kit (Vector laboratories). Images were randomly taken from the […] (five images per tumor) at ×200 magnification using an Olympus BX43 microscope. All the xenograft experiments were performed in accordance with a protocol approved by the Institutional Animal Care and Use Committee and Institutional Review Board at The University of Texas MD Anderson Cancer Center. The study is compliant with all relevant ethical regulations regarding animal research. Female 4- to 6-week-old athymic nude mice (Foxn1^nu/Foxn1^nu) were purchased from the Experimental Radiation Oncology Breeding Core Facility at MD Anderson Cancer Center and housed in the Animal Care Facility at the Department of Veterinary Medicine and Surgery at MD Anderson. Cancer cell lines were suspended and counted in cold phosphate-buffered saline (PBS), and 5×10^6 HT-1080 or 1×10^7 NCI-H226 cells were injected into mice subcutaneously. When the tumor reached 50-100 mm^3, the mice were assigned randomly into different treatment groups. Brequinar or sulfasalazine was dissolved in dimethyl sulfoxide (DMSO) and diluted in PBS. Brequinar was intraperitoneally injected into mice at a dose of 30 mg/kg every three days. Sulfasalazine was intraperitoneally injected daily at a dose of 100 mg/kg. Liproxstatin-1 diluted in PBS was intraperitoneally injected daily at a dose of 10 mg/kg. The daily injection of brequinar, sulfasalazine, or liproxstatin-1 was continued until the endpoint as indicated in the corresponding figures. The tumor volume was measured every 3 days until the endpoint and calculated according to the equation volume=length×width^2×½.

GPX4-knockdown tumors = assay: GPX4-knockdown HT-1080 xenograft model; format: in vivo, athymic nude mice
Description: as §1

[1] = system: GPX4^low NCI-H226 xenografts; assay: NCI-H226 xenograft model; format: in vivo, athymic nude mice; conditions: brequinar 30 mg/kg intraperitoneally every three days
Description: All the xenograft experiments were performed in accordance with a protocol approved by the Institutional Animal Care and Use Committee and Institutional Review Board at The University of Texas MD Anderson Cancer Center. The study is compliant with all relevant ethical regulations regarding animal research. Female 4- to 6-week-old athymic nude mice (Foxn1^nu/Foxn1^nu) were purchased from the Experimental Radiation Oncology Breeding Core Facility at MD Anderson Cancer Center and housed in the Animal Care Facility at the Department of Veterinary Medicine and Surgery at MD Anderson. Cancer cell lines were suspended and counted in cold phosphate-buffered saline (PBS), and 5×10^6 HT-1080 or 1×10^7 NCI-H226 cells were injected into mice subcutaneously. When the tumor reached 50-100 mm^3, the mice were assigned randomly into different treatment groups. Brequinar or sulfasalazine was dissolved in dimethyl sulfoxide (DMSO) and diluted in PBS. Brequinar was intraperitoneally injected into mice at a dose of 30 mg/kg every three days. Sulfasalazine was intraperitoneally injected daily at a dose of 100 mg/kg. Liproxstatin-1 diluted in PBS was intraperitoneally injected daily at a dose of 10 mg/kg. […] The tumor volume was measured every 3 days until the endpoint and calculated according to the equation volume=length×width^2×½.

[2] = system: GPX4^low patient-derived xenografts (PDXs); assay: GPX4^low patient-derived xenograft model; format: in vivo, NSG mice; conditions: brequinar 30 mg/kg intraperitoneally every three days
From the text: PDXs were generated in accordance with protocols approved by the Institutional Review Board at The University of Texas MD Anderson Cancer Center. Informed consent was obtained from the patients and the study is compliant with all relevant ethical regulations regarding research involving human participants. All the NOD scid gamma (NSG) mice were purchased from the Experimental Radiation Oncology Breeding Core Facility at MD Anderson Cancer Center and housed in the Animal Care Facility at the Department of Veterinary Medicine and Surgery at MD Anderson Cancer Center. PDX model used in this study was originally obtained from lung cancer PDX platform at MD Anderson Cancer Center. PDX experiments were performed as previously described (Liu, X., et al., Nat Cell Biol 22, 476-486 (2020)). Briefly, PDX tumors in cold DMEM media were minced into fragments 1-2 mm^3 in volume. Then each PDX tumor fragment was subcutaneously inoculated into the dorsal flank of NSG mice. When the tumors reached 50-100 mm 3 in volume, the mice were assigned randomly into different treatment groups for the treatment of brequinar, sulfasalazine, and/or liproxstatin-1 as described under cell line-derived xenograft model. The tumor volume was measured every 3 days until the endpoint and calculated according to the equation volume=length×width^2×½.

solid tumors = conditions: oncology clinical trials; cited from earlier work
DHODH = DHODH (Homo sapiens, UniProt Q02127); conditions: cited from earlier work
[3] = brequinar 30 mg/kg intraperitoneally every three days

Chain of DHODH (Q02127 whole entry, species assumed): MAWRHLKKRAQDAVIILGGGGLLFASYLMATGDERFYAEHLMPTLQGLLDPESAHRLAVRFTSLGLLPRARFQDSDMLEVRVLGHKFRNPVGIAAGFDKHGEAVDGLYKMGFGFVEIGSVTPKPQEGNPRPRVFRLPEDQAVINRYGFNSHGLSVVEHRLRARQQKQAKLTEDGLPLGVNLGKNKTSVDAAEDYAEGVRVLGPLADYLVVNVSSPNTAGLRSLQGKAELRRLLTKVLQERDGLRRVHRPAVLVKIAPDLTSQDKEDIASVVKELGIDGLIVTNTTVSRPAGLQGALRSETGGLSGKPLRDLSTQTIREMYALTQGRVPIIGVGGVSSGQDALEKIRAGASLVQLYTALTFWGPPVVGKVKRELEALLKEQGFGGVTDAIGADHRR

SMILES: Cc1c(-c2ccc(-c3ccccc3F)cc2)nc2ccc(F)cc2c1C(=O)O [brequinar]
- effect on RSL3-induced ferroptosis (GPX4^high HT-1080 cells): promotes RSL3-induced ferroptosis
- tumor growth (HT-1080 xenograft tumors; [3]): did not affect the growth
- 4-HNE staining (lipid peroxidation marker) (HT-1080 xenograft tumors; control tumors): but not in control tumors
- cleaved caspase-3 or Ki67 staining (HT-1080 xenograft tumors; control xenograft samples): did not affect
- 4-HNE staining (lipid peroxidation marker) (GPX4-knockdown tumors; GPX4-knockdown tumors): dramatically increased
- cleaved caspase-3 or Ki67 staining (GPX4-knockdown tumors; GPX4-knockdown xenograft samples): did not affect
- tumor growth (sensitivity to DHODH inhibition) (GPX4-knockdown tumors; [3]): significantly sensitized
- tumor growth [1]: significantly suppressed
- tumor growth [2]: significantly suppressed
- efficacy against solid tumors (solid tumors): lacks broad efficacy against solid tumors
- tolerability in patients (solid tumors): well-tolerated
- DHODH inhibitor potency and specificity (DHODH): potent and specific
